Values quoted from earlier work as cited in publication PMC9762682, “Tocotrienols: Exciting Biological and Pharmacological Properties of Tocotrienols and Naturally Occurring Compounds, Part II” (Annals of clinical case reports, 2022).

Experiments:
T-cells (Jurkat) = tested on: T-cells (Jurkat); set-up: method as in PMID 29606130; value at effective dose: unit not given here
Prostate cancer cells = tested on: Prostate cancer cells; set-up: method as in PMID 29606130; value at effective dose: scale not given here; details: for effective dose / percentage of control at effective dose / value at effective dose: 48 h;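 on IC50: anti-proliferation of cancer cells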
Melanoma cells = tested on: Melanoma cells; set-up: method as in PMID 29606130
Lung cancer cells = tested on: Lung cancer cells; set-up: method as in PMID 29606130; value at effective dose: unit not given here
Breast cancer cells = tested on: Breast cancer cells; set-up: method as in PMID 29606130; value at effective dose: unit not given here;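 on IC50: anti-proliferation of cancer cells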
Pancreas cancer cells = tested on: Pancreas cancer cells; set-up: method as in PMID 29606130; value at effective dose: unit not given here; details: for effective dose / percentage of control at effective dose / value at effective dose: 48 h
B-Lymphocyte cells = tested on: B-Lymphocyte cells; set-up: method as in PMID 29606130; value at effective dose: unit not given here;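 on IC50: anti-proliferation of cancer cells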
Liver cancer cells = tested on: Liver cancer cells; set-up: method as in PMID 29606130; value at effective dose: unit not given here; details: for effective dose / percentage of control at effective dose / value at effective dose: 48 h
Hela cells = tested on: Hela cells; set-up: method as in PMID 29606130; value at effective dose: unit not given here; details: for effective dose / percentage of control at effective dose / value at effective dose: 48 h;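 on IC50: anti-proliferation of cancer cells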

CC1(C)S[C@@H]2[C@H](NC(=O)[C@H](N)c3ccccc3)C(=O)N2[C@H]1C(=O)O [Ampicillin]
effective dose (T-cells (Jurkat)): 20 µM
percentage of control at effective dose (T-cells (Jurkat)): 94%
value at effective dose (T-cells (Jurkat)): 450.3 ± 15.6
IC50 (Prostate cancer cells): 5 µM
percentage of control at IC50 dose (Prostate cancer cells): 50%
effective dose (Prostate cancer cells): 20 µM
percentage of control at effective dose (Prostate cancer cells): 41%
value at effective dose (Prostate cancer cells): 15.0 ± 1.0
effective dose (Melanoma cells): 20 µM
percentage of control at effective dose (Melanoma cells): 70%
effective dose (Lung cancer cells): 80 µM
percentage of control at effective dose (Lung cancer cells): 85%
value at effective dose (Lung cancer cells): 21.3 ± 1.5
effective dose (Breast cancer cells): 40 µM
percentage of control at effective dose (Breast cancer cells): 74%
value at effective dose (Breast cancer cells): 16.7 ± 6.1
effective dose (Pancreas cancer cells): 80 µM
percentage of control at effective dose (Pancreas cancer cells): 74%
value at effective dose (Pancreas cancer cells): 35.3 ± 5.0
effective dose (B-Lymphocyte cells): 10 µM
percentage of control at effective dose (B-Lymphocyte cells): 66%
value at effective dose (B-Lymphocyte cells): 44.7 ± 5.1
effective dose (Liver cancer cells): 40 µM
percentage of control at effective dose (Liver cancer cells): 88%
value at effective dose (Liver cancer cells): 70.3 ± 4.2
effective dose (Hela cells): 80 µM
percentage of control at effective dose (Hela cells): 88%
value at effective dose (Hela cells): 47.7 ± 5.5

O=C1C[C@@H]2[C@@H](CO)[C@H](O)C[C@@H]2O1 [(−) Corey Lactone]
IC50 (T-cells (Jurkat)): 80 µM
effective dose (T-cells (Jurkat)): 40 µM
percentage of control at IC50 dose (T-cells (Jurkat)): 29%
percentage of control at effective dose (T-cells (Jurkat)): 64%
value at effective dose (T-cells (Jurkat)): 280.3 ± 10.2
IC50 (Prostate cancer cells): 80 µM
percentage of control at IC50 dose (Prostate cancer cells): 51%
effective dose (Prostate cancer cells): 40 µM
percentage of control at effective dose (Prostate cancer cells): 60%
value at effective dose (Prostate cancer cells): 23.3 ± 2.1
IC50 (Melanoma cells): 80 µM
effective dose (Melanoma cells): 40 µM
percentage of control at IC50 dose (Melanoma cells): 46%
percentage of control at effective dose (Melanoma cells): 62%
IC50 (Lung cancer cells): 80 µM
effective dose (Lung cancer cells): 40 µM
percentage of control at IC50 dose (Lung cancer cells): 44%
percentage of control at effective dose (Lung cancer cells): 64%
value at effective dose (Lung cancer cells): 17.3 ± 3.8
IC50 (Breast cancer cells): 80 µM
effective dose (Breast cancer cells): 40 µM
percentage of control at IC50 dose (Breast cancer cells): 55%
percentage of control at effective dose (Breast cancer cells): 77%
value at effective dose (Breast cancer cells): 17.7 ± 3.2
IC50 (Pancreas cancer cells): 80 µM
percentage of control at IC50 dose (Pancreas cancer cells): 54%
effective dose (Pancreas cancer cells): 40 µM
percentage of control at effective dose (Pancreas cancer cells): 58%
value at effective dose (Pancreas cancer cells): 30.7 ± 1.2
IC50 (B-Lymphocyte cells): 40 µM
effective dose (B-Lymphocyte cells): 20 µM
percentage of control at IC50 dose (B-Lymphocyte cells): 37%
percentage of control at effective dose (B-Lymphocyte cells): 59%
value at effective dose (B-Lymphocyte cells): 5.3 ± 1.5
IC50 (Liver cancer cells): 80 µM
percentage of control at IC50 dose (Liver cancer cells): 56%
effective dose (Liver cancer cells): 80 µM
percentage of control at effective dose (Liver cancer cells): 56%
value at effective dose (Liver cancer cells): 31.7 ± 2.1
effective dose (Hela cells): 80 µM
percentage of control at effective dose (Hela cells): 66%
value at effective dose (Hela cells): 36.0 ± 5.6

C=C(NC(=O)C(=C)NC(=O)c1csc(C2=N[C@@H]3c4csc(n4)[C@H]4NC(=O)c5csc(n5)[C@H]([C@](C)(O)[C@@H](C)O)NC(=O)[C@H]5CSC(=N5)/C(=C/C)NC(=O)[C@H]([C@@H](C)O)NC(=O)c5csc(n5)[C@]3(CC2)NC(=O)[C@H](C)NC(=O)C(=C)NC(=O)[C@H](C)NC(=O)[C@H]([C@@H](C)CC)N[C@@H]2C=Cc3c([C@H](C)O)cc(nc3[C@H]2O)C(=O)O[C@@H]4C)n1)C(N)=O [Thiostrepton]
effective dose (T-cells (Jurkat)): 2.5 µM
percentage of control at IC50 dose (T-cells (Jurkat)): 5%
percentage of control at effective dose (T-cells (Jurkat)): 5%
value at effective dose (T-cells (Jurkat)): 21.3 ± 2.1
IC50 (Prostate cancer cells): 2.5 µM
percentage of control at IC50 dose (Prostate cancer cells): 53%
effective dose (Prostate cancer cells): 5 µM
percentage of control at effective dose (Prostate cancer cells): 19%
value at effective dose (Prostate cancer cells): 7.0 ± 1.7
effective dose (Melanoma cells): 5 µM
percentage of control at IC50 dose (Melanoma cells): 34%
percentage of control at effective dose (Melanoma cells): 13%
IC50 (Lung cancer cells): 5 µM
effective dose (Lung cancer cells): 5 µM
percentage of control at IC50 dose (Lung cancer cells): 48%
percentage of control at effective dose (Lung cancer cells): 28%
value at effective dose (Lung cancer cells): 7.0 ± 2.0
IC50 (Breast cancer cells): 20 µM
effective dose (Breast cancer cells): 10 µM
percentage of control at IC50 dose (Breast cancer cells): 16%
percentage of control at effective dose (Breast cancer cells): 29%
value at effective dose (Breast cancer cells): 6.7 ± 0.6
IC50 (Pancreas cancer cells): 5 µM
percentage of control at IC50 dose (Pancreas cancer cells): 29%
effective dose (Pancreas cancer cells): 10 µM
percentage of control at effective dose (Pancreas cancer cells): 16%
value at effective dose (Pancreas cancer cells): 7.7 ± 0.6
effective dose (B-Lymphocyte cells): 2.5 µM
percentage of control at IC50 dose (B-Lymphocyte cells): 23%
percentage of control at effective dose (B-Lymphocyte cells): 23%
value at effective dose (B-Lymphocyte cells): 15.7 ± 4.0
IC50 (Liver cancer cells): 2.5 µM
percentage of control at IC50 dose (Liver cancer cells): 53%
effective dose (Liver cancer cells): 10 µM
percentage of control at effective dose (Liver cancer cells): 8%
value at effective dose (Liver cancer cells): 6.7 ± 2.2
IC50 (Hela cells): 10 µM
percentage of control at IC50 dose (Hela cells): 24%
effective dose (Hela cells): 40 µM
percentage of control at effective dose (Hela cells): 16%
value at effective dose (Hela cells): 8.7 ± 1.5

C=C[C@H]1C[N@@]2CC[C@H]1C[C@H]2[C@H](O)c1ccnc2ccc(OC)cc12 [Quinine Sulphate]
IC50 (T-cells (Jurkat)): 80 µM
effective dose (T-cells (Jurkat)): 40 µM
percentage of control at IC50 dose (T-cells (Jurkat)): 50%
percentage of control at effective dose (T-cells (Jurkat)): 77%
value at effective dose (T-cells (Jurkat)): 267.7 ± 29.7
IC50 (Prostate cancer cells): 20 µM
percentage of control at IC50 dose (Prostate cancer cells): 36%
effective dose (Prostate cancer cells): 20 µM
percentage of control at effective dose (Prostate cancer cells): 36%
value at effective dose (Prostate cancer cells): 15.7 ± 2.1
IC50 (Melanoma cells): 80 µM
effective dose (Melanoma cells): 20 µM
percentage of control at IC50 dose (Melanoma cells): 50%
percentage of control at effective dose (Melanoma cells): 56%
effective dose (Lung cancer cells): 40 µM
percentage of control at effective dose (Lung cancer cells): 66%
effective dose (Breast cancer cells): 80 µM
percentage of control at effective dose (Breast cancer cells): 60%
value at effective dose (Breast cancer cells): 12.3 ± 2.3
effective dose (Pancreas cancer cells): 40 µM
percentage of control at effective dose (Pancreas cancer cells): 78%
value at effective dose (Pancreas cancer cells): 35.0 ± 3.0
effective dose (B-Lymphocyte cells): 80 µM
percentage of control at effective dose (B-Lymphocyte cells): 19%
IC50 (Liver cancer cells): 80 µM
percentage of control at IC50 dose (Liver cancer cells): 58%
effective dose (Liver cancer cells): 80 µM
percentage of control at effective dose (Liver cancer cells): 58%
value at effective dose (Liver cancer cells): 47.7 ± 2.1
IC50 (Hela cells): 10 µM
percentage of control at IC50 dose (Hela cells): 24%
effective dose (Hela cells): 20 µM
percentage of control at effective dose (Hela cells): 19%

C[C@@H]1C[C@H]2[C@@H]3CCC4=CC(=O)C=C[C@]4(C)[C@@]3(F)[C@@H](O)C[C@]2(C)[C@@]1(O)C(=O)CO [Dexamethasone]
effective dose (T-cells (Jurkat)): 40 µM
percentage of control at effective dose (T-cells (Jurkat)): 71%
value at effective dose (T-cells (Jurkat)): 282.0 ± 21.7
IC50 (Prostate cancer cells): 2.5 µM
percentage of control at IC50 dose (Prostate cancer cells): 45%
effective dose (Prostate cancer cells): 20 µM
percentage of control at effective dose (Prostate cancer cells): 32%
value at effective dose (Prostate cancer cells): 16.7 ± 1.5
effective dose (Melanoma cells): 40 µM
percentage of control at effective dose (Melanoma cells): 74%
IC50 (Lung cancer cells): 2.5 µM
effective dose (Lung cancer cells): 20 µM
percentage of control at IC50 dose (Lung cancer cells): 47%
percentage of control at effective dose (Lung cancer cells): 76%
value at effective dose (Lung cancer cells): 16.7 ± 2.1
effective dose (Breast cancer cells): 80 µM
percentage of control at effective dose (Breast cancer cells): 85%
value at effective dose (Breast cancer cells): 15.7 ± 3.1
effective dose (Pancreas cancer cells): 20 µM
percentage of control at effective dose (Pancreas cancer cells): 73%
value at effective dose (Pancreas cancer cells): 34.7 ± 4.0
IC50 (B-Lymphocyte cells): 5 µM
effective dose (B-Lymphocyte cells): 10 µM
percentage of control at IC50 dose (B-Lymphocyte cells): 45%
percentage of control at effective dose (B-Lymphocyte cells): 41%
value at effective dose (B-Lymphocyte cells): 61.0 ± 3.6
effective dose (Liver cancer cells): 80 µM
percentage of control at effective dose (Liver cancer cells): 93%
value at effective dose (Liver cancer cells): 67.3 ± 4.0
IC50 (Hela cells): 20 µM
percentage of control at IC50 dose (Hela cells): 54%
effective dose (Hela cells): 80 µM
percentage of control at effective dose (Hela cells): 53%
value at effective dose (Hela cells): 18.0 ± 4.0

O=C1O[C@H]([C@@H](O)CO)C(O)=C1O [Ascorbic Acid]
effective dose (T-cells (Jurkat)): 40 µM
percentage of control at effective dose (T-cells (Jurkat)): 89%
value at effective dose (T-cells (Jurkat)): 451.3 ± 32.4
effective dose (Prostate cancer cells): 80 µM
percentage of control at effective dose (Prostate cancer cells): 81%
value at effective dose (Prostate cancer cells): 29.3 ± 2.1
effective dose (Melanoma cells): 80 µM
percentage of control at effective dose (Melanoma cells): 81%
IC50 (Lung cancer cells): 10 µM
effective dose (Lung cancer cells): 20 µM
percentage of control at IC50 dose (Lung cancer cells): 49%
percentage of control at effective dose (Lung cancer cells): 46%
value at effective dose (Lung cancer cells): 15.0 ± 4.4
effective dose (Breast cancer cells): 40 µM
percentage of control at effective dose (Breast cancer cells): 73%
value at effective dose (Breast cancer cells): 15.0 ± 1.7
effective dose (Pancreas cancer cells): 80 µM
percentage of control at effective dose (Pancreas cancer cells): 71%
value at effective dose (Pancreas cancer cells): 42.3 ± 2.5
effective dose (B-Lymphocyte cells): 20 µM
percentage of control at effective dose (B-Lymphocyte cells): 62%
value at effective dose (B-Lymphocyte cells): 17.3 ± 2.5
effective dose (Liver cancer cells): 80 µM
percentage of control at effective dose (Liver cancer cells): 90%
value at effective dose (Liver cancer cells): 74.3 ± 2.5
effective dose (Hela cells): 80 µM
percentage of control at effective dose (Hela cells): 64%
value at effective dose (Hela cells): 21.0 ± 0.1
